Test results from ChEMBL document CHEMBL5614371, “Quinazolines annelated at the N(3)-C(4) bond: Synthesis and biological activity” (Eur J Med Chem, 2024).
Converted amounts (≈) assume the structure as drawn.

Tests used:
MDA-MB-231 [1] = assay: cells; conditions: Homo sapiens, MDA-MB-231, 48 h
A549 [2] = assay: cells; conditions: Homo sapiens, A549, 48 h
NCI-H1299 [3] = assay: cells; conditions: Homo sapiens, NCI-H1299, 48 h
HepG2 [4] = assay: cells; conditions: Homo sapiens, HepG2, 24 h
HCT-116 [5] = assay: cells; conditions: Homo sapiens, HCT-116, 24 h
MCF7 [6] = assay: cells; conditions: Homo sapiens, MCF7, 48 h
NCI-H1299 [7] = assay: cells; conditions: Homo sapiens
cells = conditions: Homo sapiens, Breast carcinoma cell
HepG2 [8] = assay: cells; conditions: Homo sapiens, HepG2, 48 h
HepG2 [9] = assay: cells; conditions: Homo sapiens, HepG2, 48 h; remark: listed apart in the source
HCT-116 [10] = assay: cells; conditions: Homo sapiens, HCT-116, 48 h
HepG2 [11] = assay: cells; conditions: Homo sapiens
HCT-116 [12] = assay: cells; conditions: Homo sapiens
A549 [13] = assay: cells; conditions: Homo sapiens, A549, 48 h; remark: listed apart in the source
NCI-H1299 [14] = assay: cells; conditions: Homo sapiens, NCI-H1299, 48 h; remark: listed apart in the source
A549 [15] = assay: cells; conditions: Homo sapiens, A549, 48 h; remark: listed apart in the source
MCF7 [16] = assay: cells; conditions: Homo sapiens, MCF7, 48 h; remark: listed apart in the source
HCT-116 [17] = assay: cells; conditions: Homo sapiens, HCT-116, 48 h; remark: listed apart in the source
[18] = system: Mycobacterium tuberculosis; assay: microbe, parasite or virus in culture; conditions: H37Rv
[19] = system: Mycobacterium tuberculosis; assay: microbe, parasite or virus in culture; conditions: H37Rv ATCC 27294, 168 h
HCT-116 [20] = assay: cells; conditions: Homo sapiens; remark: listed apart in the source
HepG2 [21] = assay: cells; conditions: Homo sapiens, HepG2, 48 h; remark: listed apart in the source
MCF7 [22] = assay: cells; conditions: Homo sapiens, MCF7, 48 h; remark: listed apart in the source
HepG2 [23] = assay: cells; conditions: Homo sapiens, HepG2, 48 h; remark: listed apart in the source
MCF7 [24] = assay: cells; conditions: Homo sapiens, MCF7, 48 h; remark: listed apart in the source
HepG2 [25] = assay: cells; conditions: Homo sapiens; remark: listed apart in the source
HCT-116 [26] = assay: cells; conditions: Homo sapiens; remark: listed apart in the source
MCF7 [27] = assay: cells; conditions: Homo sapiens, MCF7, 24 h
A549 [28] = assay: cells; conditions: Homo sapiens, A549, 72 h
HCT-116 [29] = assay: cells; conditions: Homo sapiens, HCT-116, 72 h
U-87 MG = assay: cells; conditions: Homo sapiens, 72 h
MCF7 [30] = assay: cells; conditions: Homo sapiens
MCF7 [31] = assay: cells; conditions: Homo sapiens; remark: listed apart in the source
Staphylococcus aureus [32] = assay: microbe, parasite or virus in culture
Bacillus subtilis = assay: microbe, parasite or virus in culture
Streptococcus pyogenes [33] = assay: microbe, parasite or virus in culture
Escherichia coli = assay: microbe, parasite or virus in culture
Klebsiella pneumoniae = assay: microbe, parasite or virus in culture
Aspergillus niger = assay: microbe, parasite or virus in culture
Candida albicans = assay: microbe, parasite or virus in culture
Trichoderma viride = assay: microbe, parasite or virus in culture
MDA-MB-231 [34] = assay: cells; conditions: Homo sapiens, MDA-MB-231, 48 h; remark: listed apart in the source
MCF7 [35] = assay: cells; conditions: Homo sapiens, MCF7, 48 h; remark: listed apart in the source
Staphylococcus aureus [36] = assay: microbe, parasite or virus in culture; conditions: ATCC 25923
Streptococcus pyogenes [37] = assay: microbe, parasite or virus in culture; conditions: ATCC 19615

## COc1ccc(C(=O)c2c(N)nn3c(NC(C)(C)CC(C)(C)C)nc4ccccc4c23)cc1
MDA-MB-231 [1]
  IC50: 2.45 µM
A549 [2]
  IC50: 1.74 µM
NCI-H1299 [3]
  IC50: 2.04 µM

## O=C(N/N=C/c1ccc(Cl)cc1)c1ccc(Nc2nc3ccccc3c3nncn23)cc1
HepG2 [4]
  IC50: 8.64 µM
HCT-116 [5]
  IC50: 11 µM

## O=c1nc2c3cc(Cl)c(Br)cc3ncn2c(O)c1-c1ccccc1
MCF7 [6]
  IC50: 3.44 µg/mL (≈ 8.54 µM)

## CC(C)(C)CC(C)(C)Nc1nc2ccccc2c2c(C#N)c(N)nn12
MDA-MB-231 [1]
  IC50: 1.96 µM
NCI-H1299 [3]
  IC50: 2.02 µM
NCI-H1299 [7]
  IC50: < 2.5 µM
cells
  IC50: < 2.5 µM

## c1ccc(C2CC(c3ccc(Nc4nc5ccccc5c5nncn45)cc3)=NN2)cc1 (configuration not stated)
HepG2 [8]
  IC50: 16.1 µM

## CC(C)(C)CC(C)(C)Nc1nc2ccccc2c2c(C(=O)c3ccc(F)cc3)c(N)nn12
MDA-MB-231 [1]
  IC50: 1.93 µM
A549 [2]
  IC50: 1.06 µM
NCI-H1299 [3]
  IC50: 1.32 µM
NCI-H1299 [7]
  IC50: < 2.5 µM
cells
  IC50: < 2.5 µM

## Oc1ccc(/C=N/Nc2nc3ccccc3c3nncn23)cc1
HepG2 [9]
  IC50: 4.43 µM
HCT-116 [10]
  IC50: 48.5 µM

## Clc1cccc(Cl)c1/C=N/Nc1nc2ccccc2c2nncn12
HepG2 [11]
  IC50: 4.43 µM
HCT-116 [12]
  IC50: 5.22 µM

## CCOC(=O)c1nn2c(NC(C)(C)CC(C)(C)C)nc3ccccc3c2c1C(=O)OCC
A549 [13]
  GI50: 1.1 µM
NCI-H1299 [14]
  GI50: 1.29 µM

## c1ccc(-c2nc3ncccc3c3cc4ccccc4n23)cc1
A549 [15]
  IC50: 30.7 µM

## Clc1cc2c(cc1Br)ncn1cnnc21
MCF7 [16]
  IC50: 3.39 µg/mL (≈ 12 µM)

## Clc1ccc2nc(-c3ccccc3)n3c4ccccc4cc3c2c1
A549 [15]
  IC50: 30.7 µM

## Cc1c(O)n2cnc3cc(Br)c(Cl)cc3c2nc1=O
MCF7 [6]
  IC50: 3.5 µg/mL (≈ 10.3 µM)

## Cc1nc2ccccc2c2cc3ccccc3n12
A549 [15]
  IC50: 30.7 µM

## O=c1nc(-c2ccc(Nc3nc4ccccc4c4nncn34)cc2)cc(-c2ccccc2)[nH]1
HCT-116 [17]
  IC50: 11.8 µM

## COc1ccc(-c2cc(-c3ccc(Nc4nc5ccccc5c5nncn45)cc3)nc(=O)[nH]2)cc1
HCT-116 [17]
  IC50: 11.8 µM

## O=[N+]([O-])c1ccc(-c2nc3ccccc3c3cc4ccccc4n23)cc1
A549 [15]
  IC50: 30.7 µM

## Cc1ccc2nc(-c3ccccc3)n3c4ccccc4cc3c2c1
A549 [15]
  IC50: 30.7 µM

## Clc1ccc(-c2nc3ccccc3c3cc4ccccc4n23)cc1
A549 [15]
  IC50: 30.7 µM

## N#Cc1ccc2c3cc(Cl)c(Br)cc3ncn2c1=O
MCF7 [6]
  IC50: 4.1 µg/mL (≈ 12.3 µM)

## CCCc1nc2ccccc2c2nc3ccccc3n12
[18]
  IC50: 0.78 µg/mL (≈ 2.98 µM)
[19]
  IC50: 0.78 µg/mL (≈ 2.98 µM)

## CN(C)c1nc2ccccc2c2nncn12
HCT-116 [20]
  IC50: 22.5 µM

## S=C(NNc1nc2ccccc2c2nncn12)NC1CCCCC1
DNA
  IC50: 48.1 µM

## Cc1ccc(-c2nc3ccccc3c3cc4ccccc4n23)cc1
A549 [15]
  IC50: 30.7 µM

## Clc1ccc2c(c1)cc1c3ccccc3nc(-c3ccccc3)n21
A549 [15]
  IC50: 30.7 µM

## c1ccc(Nc2ccccc2-c2nc3ccccc3c3nc(-c4ccccc4)nn23)cc1
HepG2 [21]
  IC50: 33.3 µg/mL (≈ 80.5 µM)
MCF7 [22]
  IC50: 87 µg/mL (≈ 210 µM)
HepG2 [23]
  IC90: 59.9 µg/mL (≈ 145 µM)
MCF7 [24]
  IC90: 137 µg/mL (≈ 332 µM)

## CCCc1nc2cc(C)ccc2c2nc3ccccc3n12
[18]
  IC50: 12.5 µg/mL (≈ 45.4 µM)
[19]
  IC50: 0.4 µg/mL (≈ 1.45 µM)

## O=C(NNc1nc2ccccc2c2nncn12)NC1CCCCC1
DNA
  IC50: 42.9 µM
HepG2 [25]
  IC50: 7.98 µM
HCT-116 [26]
  IC50: 5.57 µM

## COc1ccc(C2CC(c3ccc(Nc4nc5ccccc5c5nncn45)cc3)=NN2)cc1 (configuration not stated)
HepG2 [8]
  IC50: 16.1 µM

## c1ccc(-c2nc3ccccc3c3cccn23)cc1
A549 [15]
  IC50: 30.7 µM

## COc1ccc(-c2nc3ccccc3c3cc4ccccc4n23)cc1
A549 [15]
  IC50: 30.7 µM

## CCOC(=O)c1ccc2c3cc(Cl)c(Br)cc3ncn2c1=O
MCF7 [27]
  IC50: 3.44 µg/mL (≈ 9.01 µM)

## COc1cccc2c1C(=O)c1c(O)c3c(c(O)c1C2=O)C[C@@](O)(C(=O)CO)C[C@@H]3O[C@H]1C[C@H](N)[C@H](O)[C@H](C)O1 [DOXORUBICIN]
DNA
  IC50: 31.3 µM
HCT-116 [12]
  IC50: 9.63 µM
HepG2 [8]
  IC50: 7.94 µM

## COC(=O)c1nn2c(NC(C)(C)C)nc3cc(Cl)ccc3c2c1C(=O)OC
A549 [28]
  IC50: 1.1 µM
HCT-116 [29]
  IC50: 2.3 µM
U-87 MG
  IC50: 2.6 µM

## O=C(/C=C\c1nc2ccccc2c2nc3ccccc3n12)c1ccc(Cl)c(Cl)c1
MCF7 [30]
  IC50: 61 µg/mL (≈ 146 µM)
MCF7 [31]
  IC50: 61 µg/mL (≈ 146 µM)

## O=C(N/N=C/c1ccccc1O)c1ccc(Nc2nc3ccccc3c3nncn23)cc1
HepG2 [4]
  IC50: 7.42 µM
HCT-116 [5]
  IC50: 7.1 µM

## Cc1ccc2c(c1)cc1c3ccccc3nc(-c3ccccc3)n21
A549 [15]
  IC50: 30.7 µM

## c1ccc(-c2nc3ccccc3c3cc4ccccc4n23)cc1
A549 [15]
  IC50: 30.7 µM

## Nc1ccccc1-c1cc2ccccc2[nH]1
Staphylococcus aureus [32]
  MIC: 2.5 µg/mL (≈ 12 µM)
Bacillus subtilis
  MIC: 2.5 µg/mL (≈ 12 µM)
Streptococcus pyogenes [33]
  MIC: 2.5 µg/mL (≈ 12 µM)
Escherichia coli
  MIC: 2.5 µg/mL (≈ 12 µM)
Klebsiella pneumoniae
  MIC: 2.5 µg/mL (≈ 12 µM)
Aspergillus niger
  MIC: 2.5 µg/mL (≈ 12 µM)
Candida albicans
  MIC: 2.5 µg/mL (≈ 12 µM)
Trichoderma viride
  MIC: 2.5 µg/mL (≈ 12 µM)

## N#CC1=CC=C2c3cc(Cl)c(Br)cc3N=CN2C1N (configuration not stated)
MCF7 [6]
  IC50: 3.45 µg/mL (≈ 10.3 µM)

## Cc1ccc(-c2cc(-c3ccc(Nc4nc5ccccc5c5nncn45)cc3)nc(=O)[nH]2)cc1
HCT-116 [17]
  IC50: 11.8 µM

## CN(C)c1ccc(/C=N/NC(=O)c2ccc(Nc3nc4ccccc4c4nncn34)cc2)cc1
HepG2 [4]
  IC50: 7.91 µM
HCT-116 [5]
  IC50: 8.27 µM

## Oc1ccc(-c2nc3ccccc3c3cc(-c4ccccc4)nn23)cc1
NCI-H1299 [14]
  GI50: 2.97 µM
MDA-MB-231 [34]
  GI50: 1.95 µM

## O=C(N/N=C/c1ccccc1Cl)c1ccc(Nc2nc3ccccc3c3nncn23)cc1
HepG2 [4]
  IC50: 4.88 µM
HCT-116 [5]
  IC50: 5.21 µM

## Clc1ccc(-c2nc3ccccc3c3cc4cc(Cl)ccc4n23)cc1
A549 [15]
  IC50: 30.7 µM

## Cc1ccc(C2CC(c3ccc(Nc4nc5ccccc5c5nncn45)cc3)=NN2)cc1 (configuration not stated)
HepG2 [8]
  IC50: 16.1 µM

## FC(F)(F)c1ccc2c(c1)cc1c3ccccc3nc(-c3ccccc3)n21
A549 [15]
  IC50: 30.7 µM

## O=C(N/N=C/c1c(Cl)cccc1Cl)c1ccc(Nc2nc3ccccc3c3nncn23)cc1
HepG2 [4]
  IC50: 5.42 µM
HCT-116 [5]
  IC50: 7.41 µM

## COc1ccc(-c2nc3ccccc3c3cc4cc(Cl)ccc4n23)cc1
A549 [15]
  IC50: 30.7 µM

## c1ccc2cc(-c3cc4c5ccccc5ncn4n3)ccc2c1
A549 [13]
  GI50: 1.98 µM
MCF7 [35]
  GI50: 2.03 µM

## FC(F)(F)c1nc2ccccc2c2cc3cc(Cl)ccc3n12
A549 [15]
  IC50: 30.7 µM

## Cc1ccc(-c2nc3ccccc3c3cc4cc(Cl)ccc4n23)cc1
A549 [15]
  IC50: 30.7 µM

## Cc1ccc(S(=O)(=O)Oc2ccc(-c3nc4ccccc4c4nc(=S)[nH]n34)cc2)cc1
Staphylococcus aureus [36]
  MIC: 3.12 µg/mL (≈ 6.97 µM)
Streptococcus pyogenes [37]
  MIC: 6.25 µg/mL (≈ 13.9 µM)
